{"source": "patent US4169157A", "about": "“Therapeutic preparations for peptic ulcers comprising aliphatic ketone derivative” (Eisai Co., Ltd., priority 1977, dated 1979)", "key": {"[1]": {"test_system": "cold and restraint stress ulcer", "experiment": "Effect on the cold and restraint stress ulcer", "assay_type": "in vivo, SD strain female rats", "settings": "200 mg/kg oral; for Inhibition rate to the development of the ulcer (in words): compared with control compound A (Gefarnate); for inhibition in vivo at 200 mg/kg: 2 h, read-out: Inhibition rate to the development of the cold and restraint stress ulcer", "experimental": "Preventive effect of the test compounds on the development of the cold and restraint stress ulcer was estimated according to Levine's method [Proc. Soc. Exptl. Biol. Med., 124, 1221 (1967)], using SD strain female rats weighing about 170 g, and being 8-10 weeks old, as test animals.\nAll test compounds were suspended in 5% gum arabic solution and one drop of Tween 80, and the suspension was orally administered to rat. A dose amounted to 200 mg/kg, and the volume of the administrative dose was controlled to 0.5 ml/100 g B. W. As a blank test, 5% gum arabic solution was administered.\nThe administration of the test compounds and the blank test were carried out 30 minutes before adopting the cold and restraint stress.\nThe effect of the test compounds was estimated by finding the value (ulcer index) of the total length of the erosion observed in the glandular portion of the test animals two hours after the cold and restraint stress, and calculating the effect of the administration of said compounds as the inhibition rate of the development of the ulcer from the value. [formula]"}, "subacute aspirin ulcer": {"test_system": "subacute aspirin ulcer", "experiment": "Effect on subacute aspirin ulcer", "assay_type": "in vivo, SD strain male rats", "settings": "for inhibition in vivo at 200 mg/kg: 144 h, read-out: Inhibition rate to the development of the subacute aspirin ulcer; for Inhibitory effect on subacute aspirin ulcer (in words): 200 mg/kg/day for five days", "experimental": "Aspirin in amount of 200 mg/kg/day was orally administered to SD strain male rats (body weight of about 250 g, nine weeks old) after abstinence from the food for 24 hours. The rats were fed for one hour, after one hour from said administration, and again abstained from the food. The administration of aspirin was continued for five days in the same schedule as mentioned above. The effect was estimated on the sixth day.\nAll the test compounds were emulsified with 5% gum arabic solution and one drop of Tween 80. The emulsions were administered continuously for five days, together with aspirin to rat. The dose amounted to 200 mg/kg/day, and the volume of the dose was controlled to 0.5 ml/100 g B. W. The blank test was similarly effected as pharmacological experiment 1.\nThe effect of the test compound was estimated by finding the value (ulcer index) of the total lengths of erosions developed in the glandular portion of the test animal with respect to the test compounds group and the blank test group, respectively, and calculating from said value the effect of the administration of the test compounds as the inhibition rate."}, "histamine ulcer": {"test_system": "histamine ulcer", "experiment": "Effect on the Histamine ulcer", "assay_type": "in vivo, SD strain male rats", "settings": "100 mg/kg oral; for inhibition in vivo at 100 mg/kg: read-out: Inhibition rate to the development of the histamine ulcer", "experimental": "According to the Okabe et al. method [[…] 26 (1) 89-93 (1975)], the inhibitory effects of the test compounds on the development of ulcer due to the administration of histamine were estimated using SD strain male rats weighing about 350 g as the test animals.\nThe methods for administration and estimation of the effect of the test compounds are carried out according to the procedure in pharmacological experiment 1.\nA dose of the test compounds amounted to 100 mg/kg.\nThe histamine was administered intraperitoneally to the test animal in an amount of 200 mg/kg as the hydrochloride.\nThe effect was estimated 4 hours after the administration of the histamine."}, "indomethacin ulcer": {"test_system": "indomethacin ulcer", "experiment": "Effect on Indomethacin ulcer", "assay_type": "in vivo, SD strain female rats", "settings": "for inhibition in vivo at 100 mg/kg: 4 h, read-out: Inhibition rate on the development of indomethacin ulcer", "experimental": "The inhibitory effects of the test compounds on the development of the ulcer due to the administration of indomethacin were estimated using SD strain female rats weighing about 200 g as the test animals.\nThe methods for administration and estimation of the effect of the test compounds are carried out according to the procedure in pharmacological experiment 2.\nThe dose of the test compound amounted to 100 mg/kg. The indomethacin was orally administered in the dose of 20 mg/kg. The effect was estimated four hours after the administration of indomethacin."}, "peptic ulcers": {"test_system": "peptic ulcers", "experiment": "Therapeutic effect on peptic ulcers (overall result of the pharmacological experiments)", "assay_type": "in vivo, SD strain rats", "settings": "from the results of the above-described pharmacological experiments"}, "[2]": {"settings": "30 minutes before stress, ulcer index two hours after stress, rat"}, "[3]": {"settings": "200 mg/kg/day for five days together with aspirin 200 mg/kg/day oral, estimated on sixth day, rat"}, "[4]": {"settings": "histamine 200 mg/kg intraperitoneally, 4 hours after histamine, rat"}, "[5]": {"settings": "indomethacin 20 mg/kg oral, four hours after indomethacin, rat"}}, "note": "“Also recorded” adds a separate entry of the source.", "data": [{"compound": "6,10,14-trimethyl-5,9,13-octadecatriene-2-on [subject compound A]", "values": [{"measurement": "Inhibition rate to the development of the cold and restraint stress ulcer", "setting": "[1]; [2]", "result": 71.4, "unit": "%"}, {"measurement": "Inhibition rate to the development of the ulcer (in words)", "setting": "[1]", "result": "higher than that of the control compound A"}, {"measurement": "Inhibition rate to the development of the subacute aspirin ulcer", "setting": "subacute aspirin ulcer; [3]", "result": 56.7, "unit": "%"}, {"measurement": "Effect on the histamine ulcer of rat (in words)", "setting": "histamine ulcer", "result": "more inhibitory effect than that of the control compound"}, {"measurement": "Inhibition rate to the development of the histamine ulcer", "setting": "histamine ulcer; [4]", "result": 50.4, "unit": "%"}, {"measurement": "Inhibition rate on the development of indomethacin ulcer", "setting": "indomethacin ulcer; 100 mg/kg, indomethacin 20 mg/kg oral, four hours after indomethacin, rat", "result": 75.4, "unit": "%"}, {"measurement": "Therapeutic effect on the peptic ulcers (in words)", "setting": "peptic ulcers", "result": "high therapeutic effect on the peptic ulcers"}]}, {"compound": "CC(C)=CCCC(C)=CCCC(C)=CCCC(=O)OCC=C(C)CCC=C(C)C", "note": "[control compound A, reference compound]", "values": [{"measurement": "inhibition in vivo at 200 mg/kg", "setting": "[1]; [2]", "result": 47.2, "unit": "%"}, {"measurement": "inhibition in vivo at 200 mg/kg", "setting": "subacute aspirin ulcer; [3]", "result": 21, "unit": "%"}, {"measurement": "Effect on the histamine ulcer of rat (in words)", "setting": "histamine ulcer", "result": "no appreciable effect"}, {"measurement": "inhibition in vivo at 100 mg/kg", "setting": "histamine ulcer; [4]", "result": 15.4, "unit": "%"}, {"measurement": "inhibition in vivo at 100 mg/kg", "setting": "indomethacin ulcer; [5]", "result": 45, "unit": "%"}]}, {"compound": "CC(=O)CCC=C(C)CCC=C(C)CCC=C(C)CCC=C(C)C", "note": "[subject compound B, 6,10,14,18-tetramethyl-5,9,13,17-nonadecatetraene-2-on]", "values": [{"measurement": "Inhibition rate to the development of the ulcer (in words)", "setting": "[1]", "result": "higher than that of the control compound A; also recorded: particularly the most effective compound"}, {"measurement": "inhibition in vivo at 200 mg/kg", "setting": "[1]; [2]", "result": 75.7, "unit": "%"}, {"measurement": "Inhibitory effect on subacute aspirin ulcer (in words)", "setting": "subacute aspirin ulcer", "result": "Inhibitory effect was shown"}, {"measurement": "inhibition in vivo at 200 mg/kg", "setting": "subacute aspirin ulcer; [3]", "result": 73.2, "unit": "%"}, {"measurement": "Effect on the histamine ulcer of rat (in words)", "setting": "histamine ulcer", "result": "more inhibitory effect than that of the control compound"}, {"measurement": "inhibition in vivo at 100 mg/kg", "setting": "histamine ulcer; [4]", "result": 53.8, "unit": "%"}, {"measurement": "Inhibitory effect on the development of the indomethacin ulcer (in words)", "setting": "indomethacin ulcer; 100 mg/kg", "result": "Particularly high inhibitory effect"}, {"measurement": "inhibition in vivo at 100 mg/kg", "setting": "indomethacin ulcer; [5]", "result": 91.3, "unit": "%"}, {"measurement": "Therapeutic effect on the peptic ulcers (in words)", "setting": "peptic ulcers", "result": "high therapeutic effect on the peptic ulcers"}]}, {"compound": "CC(C)=CCCC(C)=CCCC(C)=CCCC(C)=CCCC(=O)C(C)C", "note": "[subject compound C, 2,7,11,15,19-pentamethyl-6,10,14,18-eicosatetraene-3-on]", "values": [{"measurement": "Inhibition rate to the development of the ulcer (in words)", "setting": "[1]", "result": "higher than that of the control compound A"}, {"measurement": "inhibition in vivo at 200 mg/kg", "setting": "[1]; [2]", "result": 67.1, "unit": "%"}, {"measurement": "inhibition in vivo at 200 mg/kg", "setting": "subacute aspirin ulcer; [3]", "result": 50.9, "unit": "%"}, {"measurement": "inhibition in vivo at 100 mg/kg", "setting": "histamine ulcer; [4]", "result": 44.7, "unit": "%"}, {"measurement": "Inhibitory effect on the development of the indomethacin ulcer (in words)", "setting": "indomethacin ulcer; 100 mg/kg", "result": "Particularly high inhibitory effect"}, {"measurement": "inhibition in vivo at 100 mg/kg", "setting": "indomethacin ulcer; [5]", "result": 86.7, "unit": "%"}, {"measurement": "Therapeutic effect on the peptic ulcers (in words)", "setting": "peptic ulcers", "result": "high therapeutic effect on the peptic ulcers"}]}, {"compound": "CC(=O)CCC=C(C)CCCC(C)CCCC(C)CCCC(C)C", "note": "(stereo not shown) [subject compound D, 6,10,14,18-tetramethyl-5-nonadecaene-2-on]", "values": [{"measurement": "Inhibition rate to the development of the ulcer (in words)", "setting": "[1]", "result": "higher than that of the control compound A"}, {"measurement": "inhibition in vivo at 200 mg/kg", "setting": "[1]; [2]", "result": 72, "unit": "%"}, {"measurement": "Inhibitory effect on subacute aspirin ulcer (in words)", "setting": "subacute aspirin ulcer", "result": "Inhibitory effect was shown"}, {"measurement": "inhibition in vivo at 200 mg/kg", "setting": "subacute aspirin ulcer; [3]", "result": 61.8, "unit": "%"}, {"measurement": "inhibition in vivo at 100 mg/kg", "setting": "histamine ulcer; [4]", "result": 35.2, "unit": "%"}, {"measurement": "inhibition in vivo at 100 mg/kg", "setting": "indomethacin ulcer; [5]", "result": 75.5, "unit": "%"}, {"measurement": "Therapeutic effect on the peptic ulcers (in words)", "setting": "peptic ulcers", "result": "high therapeutic effect on the peptic ulcers"}]}, {"compound": "CC(=O)CCCC(C)CCCC(C)CCCC(C)CCCC(C)C", "note": "(stereo not shown) [subject compound E, 6,10,14,18-tetramethyl-nonadecane-2-on]", "values": [{"measurement": "Inhibition rate to the development of the ulcer (in words)", "setting": "[1]", "result": "higher than that of the control compound A"}, {"measurement": "inhibition in vivo at 200 mg/kg", "setting": "[1]; [2]", "result": 67.8, "unit": "%"}, {"measurement": "inhibition in vivo at 200 mg/kg", "setting": "subacute aspirin ulcer; [3]", "result": 48.5, "unit": "%"}, {"measurement": "inhibition in vivo at 100 mg/kg", "setting": "histamine ulcer; [4]", "result": 22.4, "unit": "%"}, {"measurement": "inhibition in vivo at 100 mg/kg", "setting": "indomethacin ulcer; [5]", "result": 71.1, "unit": "%"}, {"measurement": "Therapeutic effect on the peptic ulcers (in words)", "setting": "peptic ulcers", "result": "high therapeutic effect on the peptic ulcers"}]}, {"compound": "CCCC(=O)CCC=C(C)CCC=C(C)CCC=C(C)CCC=C(C)C", "note": "[subject compound F, 8,12,16,20-tetramethyl-7,11,15,19-heneicosatetraene-4-on]", "values": [{"measurement": "Inhibition rate to the development of the ulcer (in words)", "setting": "[1]", "result": "higher than that of the control compound A"}, {"measurement": "inhibition in vivo at 200 mg/kg", "setting": "[1]; [2]", "result": 69.5, "unit": "%"}, {"measurement": "inhibition in vivo at 200 mg/kg", "setting": "subacute aspirin ulcer; [3]", "result": 52.7, "unit": "%"}, {"measurement": "Effect on the histamine ulcer of rat (in words)", "setting": "histamine ulcer", "result": "more inhibitory effect than that of the control compound"}, {"measurement": "inhibition in vivo at 100 mg/kg", "setting": "histamine ulcer; [4]", "result": 49, "unit": "%"}, {"measurement": "Inhibitory effect on the development of the indomethacin ulcer (in words)", "setting": "indomethacin ulcer; 100 mg/kg", "result": "Particularly high inhibitory effect"}, {"measurement": "inhibition in vivo at 100 mg/kg", "setting": "indomethacin ulcer; [5]", "result": 88.5, "unit": "%"}, {"measurement": "Therapeutic effect on the peptic ulcers (in words)", "setting": "peptic ulcers", "result": "high therapeutic effect on the peptic ulcers"}]}, {"compound": "CC(=O)C(CC=C(C)CCC=C(C)CCC=C(C)CCC=C(C)C)C(C)=O", "note": "[subject compound G, 3-acetyl-6,10,14,18-tetramethyl-5,9,13,17-nonadecatetraene-2-on]", "values": [{"measurement": "Inhibition rate to the development of the ulcer (in words)", "setting": "[1]", "result": "higher than that of the control compound A"}, {"measurement": "inhibition in vivo at 200 mg/kg", "setting": "[1]; [2]", "result": 70.5, "unit": "%"}, {"measurement": "inhibition in vivo at 200 mg/kg", "setting": "subacute aspirin ulcer; [3]", "result": 64.5, "unit": "%"}, {"measurement": "inhibition in vivo at 100 mg/kg", "setting": "histamine ulcer; [4]", "result": 40.8, "unit": "%"}, {"measurement": "inhibition in vivo at 100 mg/kg", "setting": "indomethacin ulcer; [5]", "result": 64.9, "unit": "%"}, {"measurement": "Therapeutic effect on the peptic ulcers (in words)", "setting": "peptic ulcers", "result": "high therapeutic effect on the peptic ulcers"}]}]}
